Reference: patent publication US12473304B2, “Heterocyclic PAD4 inhibitors” (BRISTOL-MYERS SQUIBB COMPANY, priority 2020, dated 2025)

Each compound was assayed against human PAD4 (hPAD4) (Homo sapiens (Human), UniProt Q9UM07) (assay: RFMS Human PAD4 Functional Assay 1). Conditions: RFMS assay 1; 5 nM hPAD4, 250 μM BAEE substrate, 50 μM calcium, 37° C.
Format: biochemical
Summary of the method: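 Citrullination product read by RapidFire triple-quad MRM against a modified-citrulline internal standard, after TCA stop and 30 min phenyl glyoxal step at 37 °C. Reaction: 250 μM BAEE, 5 nM human PAD4, 90 min at 37 °C, pH 7.5 HEPES buffer with 50 μM calcium and 5 μM TPEN, following 30 min compound–enzyme preincubation (max 50 μM).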

human PAD4 (hPAD4), sequence (Q9UM07 whole entry): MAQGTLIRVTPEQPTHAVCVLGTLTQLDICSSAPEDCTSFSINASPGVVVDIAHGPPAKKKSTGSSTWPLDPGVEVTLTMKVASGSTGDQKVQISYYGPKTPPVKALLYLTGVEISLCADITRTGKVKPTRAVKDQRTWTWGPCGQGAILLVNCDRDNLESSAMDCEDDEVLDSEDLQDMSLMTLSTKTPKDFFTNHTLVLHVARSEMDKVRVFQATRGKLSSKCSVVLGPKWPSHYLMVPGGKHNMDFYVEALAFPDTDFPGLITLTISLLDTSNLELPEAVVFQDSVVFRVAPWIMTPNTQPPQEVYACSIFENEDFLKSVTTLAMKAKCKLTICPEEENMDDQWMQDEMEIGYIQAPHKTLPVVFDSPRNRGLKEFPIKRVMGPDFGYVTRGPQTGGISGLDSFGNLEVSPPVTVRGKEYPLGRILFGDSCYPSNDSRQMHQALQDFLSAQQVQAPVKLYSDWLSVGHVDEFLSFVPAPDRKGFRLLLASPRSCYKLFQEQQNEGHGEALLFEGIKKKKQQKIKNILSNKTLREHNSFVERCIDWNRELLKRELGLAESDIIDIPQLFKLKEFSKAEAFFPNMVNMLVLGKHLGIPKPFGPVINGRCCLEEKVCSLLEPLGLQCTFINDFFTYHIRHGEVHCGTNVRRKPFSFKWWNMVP

IC50	Structure (SMILES)
25 nM	Cc1c(-c2cc3ccc(C(C)O)nc3n2CC2CC2)nn2cc(C(=O)N3CC4CCC3[C@@H]4N)ccc12 (stereo partly drawn) [Example 104, ((7R)-7-Amino-2-azabicyclo[2.2.1]heptan-2-yl)(2-(1-(cyclopropylmethyl)-6-(1-hydroxyethyl)-1H-pyrrolo[2,3-b]pyridin-2-yl)-3-methylpyrazolo[1,5-a]pyridin-6-yl)methanone]
107 nM	Cc1c(-c2cc3ccc(C(C)(C)O)nc3n2CC2CC2)nn2cc(C(=O)N3C[C@H](N)C[C@@H](F)C3)ccc12 [Example 105, ((3R,5R)-3-Amino-5-fluoropiperidin-1-yl)(2-(1-(cyclopropylmethyl)-6-(2-hydroxypropan-2-yl)-1H-pyrrolo[2,3-b]pyridin-2-yl)-3-methylpyrazolo[1,5-a]pyridin-6-yl)methanone]
907 nM	Cc1c(-c2cc3ccc(Cl)nc3n2CC2CC2)nn2cc(C(=O)N3CC4CCC3[C@@H]4N)cnc12 (stereo partly drawn) [Example 108, ((7R)-7-Amino-2-azabicyclo[2.2.1]heptan-2-yl)(2-(6-chloro-1-(cyclopropylmethyl)-1H-pyrrolo[2,3-b]pyridin-2-yl)-3-methylpyrazolo[1,5-a]pyrimidin-6-yl)methanone]
292 nM	Cc1c(-c2cc3ccc(-c4cccc(O)c4F)nc3n2CC2CC2)nn2cc(C(=O)N3CC4CCC3[C@@H]4N)cnc12 (stereo partly drawn) [Example 109, ((7R)-7-Amino-2-azabicyclo[2.2.1]heptan-2-yl)(2-(1-(cyclopropylmethyl)-6-(2-fluoro-3-hydroxyphenyl)-1H-pyrrolo[2,3-b]pyridin-2-yl)-3-methylpyrazolo[1,5-a]pyrimidin-6-yl)methanone]
1040 nM	Cc1c(-c2cc3ccc(-c4ccc5c(c4)C(=O)NC5)nc3n2CC2CC2)nn2cc(C(=O)N3CC4CCC3[C@@H]4N)cnc12 (stereo partly drawn) [Example 110, 6-(2-(6-((7R)-7-Amino-2-azabicyclo[2.2.1]heptane-2-carbonyl)-3-methylpyrazolo[1,5-a]pyrimidin-2-yl)-1-(cyclopropylmethyl)-1H-pyrrolo[2,3-b]pyridin-6-yl)isoindolin-1-one]
15000 nM	Cc1c(-c2cc3ccc(-c4ccc(O)c(F)c4)nc3n2CC2CC2)nn2cc(C(=O)N3CC4CCC3[C@@H]4N)cnc12 (stereo partly drawn) [Example 111, ((7R)-7-Amino-2-azabicyclo[2.2.1]heptan-2-yl)(2-(1-(cyclopropylmethyl)-6-(3-fluoro-4-hydroxyphenyl)-1H-pyrrolo[2,3-b]pyridin-2-yl)-3-methylpyrazolo[1,5-a]pyrimidin-6-yl)methanone]
572 nM	Cc1c(-c2cc3ccc(-c4ccc(C(N)=O)c(F)c4)nc3n2CC2CC2)nn2cc(C(=O)N3CC4CCC3[C@@H]4N)cnc12 (stereo partly drawn) [Example 112, 4-(2-(6-((7R)-7-Amino-2-azabicyclo[2.2.1]heptane-2-carbonyl)-3-methylpyrazolo[1,5-a]pyrimidin-2-yl)-1-(cyclopropylmethyl)-1H-pyrrolo[2,3-b]pyridin-6-yl)-2-fluorobenzamide]
283 nM	COc1nc(C(=O)N2CC3CCC2[C@@H]3N)cn2nc(-c3cc4ccccc4n3CC3CC3)c(C)c12 (stereo partly drawn) [Example 113, ((7R)-7-Amino-2-azabicyclo[2.2.1]heptan-2-yl)(2-(1-(cyclopropylmethyl)-1H-indol-2-yl)-4-methoxy-3-methylpyrazolo[1,5-a]pyrazin-6-yl)methanone]
3980 nM	COc1nc(C(=O)N2C[C@H](N)C[C@@H](F)C2)cn2nc(-c3cc4ccccc4n3CC3CC3)c(C)c12 [Example 114, ((3R,5R)-3-Amino-5-fluoropiperidin-1-yl)(2-(1-(cyclopropylmethyl)-1H-indol-2-yl)-4-methoxy-3-methylpyrazolo[1,5-a]pyrazin-6-yl)methanone]
3370 nM	COc1nc(C(=O)N2CC3CCC2[C@@H]3N)cn2nc(-c3cc4cccnc4n3CC3CC3)c(C)c12 (stereo partly drawn) [Example 115, ((7R)-7-Amino-2-azabicyclo[2.2.1]heptan-2-yl)(2-(1-(cyclopropylmethyl)-1H-pyrrolo[2,3-b]pyridin-2-yl)-4-methoxy-3-methylpyrazolo[1,5-a]pyrazin-6-yl)methanone]
22800 nM	COc1nc(C(=O)N2CC3(CNC3)C2)cn2nc(-c3cc4cccnc4n3CC3CC3)c(C)c12 [Example 116, (2-(1-(Cyclopropylmethyl)-1H-pyrrolo[2,3-b]pyridin-2-yl)-4-methoxy-3-methylpyrazolo[1,5-a]pyrazin-6-yl)(2,6-diazaspiro[3.3]heptan-2-yl)methanone]
15000 nM	COc1nc(C(=O)NC[C@H](F)CN)cn2nc(-c3cc4cccnc4n3CC3CC3)c(C)c12 [Example 117, (R)-N-(3-Amino-2-fluoropropyl)-2-(1-(cyclopropylmethyl)-1H-pyrrolo[2,3-b]pyridin-2-yl)-4-methoxy-3-methylpyrazolo[1,5-a]pyrazine-6-carboxamide]
157 nM	COc1cc(C(=O)N2CC3CCC2[C@@H]3N)cc2sc(-c3cc4ccccc4n3CC3CC3)c(C)c12 (stereo partly drawn) [Example 118, ((7R)-7-Amino-2-azabicyclo[2.2.1]heptan-2-yl)(2-(1-(cyclopropylmethyl)-1H-indol-2-yl)-4-methoxy-3-methylbenzo[b]thiophen-6-yl)methanone]
84 nM	COc1cc(C(=O)N2CC3CCC2[C@@H]3N)cc2sc(-c3cc4cccnc4n3CC3CC3)c(C)c12 (stereo partly drawn) [Example 119, ((7R)-7-Amino-2-azabicyclo[2.2.1]heptan-2-yl)(2-(1-(cyclopropylmethyl)-1H-pyrrolo[2,3-b]pyridin-2-yl)-4-methoxy-3-methylbenzo[b]thiophen-6-yl)methanone]
250 nM	COc1cc(C(=O)N2CC3CCC2[C@@H]3N)cc2sc(-c3cc4ccc(-c5ccc6c(c5)C(=O)NC6)cc4n3CC3CC3)c(C)c12 (stereo partly drawn) [Example 120, 6-(2-(6-((7R)-7-Amino-2-azabicyclo[2.2.1]heptane-2-carbonyl)-4-methoxy-3-methylbenzo[b]thiophen-2-yl)-1-(cyclopropylmethyl)-1H-indol-6-yl)isoindolin-1-one]
1500 nM	COc1cc(C(=O)N2CC3CCC2[C@@H]3N)cc2sc(-c3cc4ccc(-c5cccc(O)c5F)cc4n3CC3CC3)c(C)c12 (stereo partly drawn) [Example 121, ((7R)-7-Amino-2-azabicyclo[2.2.1]heptan-2-yl)(2-(1-(cyclopropylmethyl)-6-(2-fluoro-3-hydroxyphenyl)-1H-indol-2-yl)-4-methoxy-3-methylbenzo[b]thiophen-6-yl)methanone]
68 nM	COc1cc(C(=O)N2CC3CCC2[C@@H]3N)cc2sc(-c3cc4ccc(-c5ccn6c(C)nnc6c5)cc4n3CC3CC3)c(C)c12 (stereo partly drawn) [Example 122, ((7R)-7-Amino-2-azabicyclo[2.2.1]heptan-2-yl)(2-(1-(cyclopropylmethyl)-6-(3-methyl-[1,2,4]triazolo[4,3-a]pyridin-7-yl)-1H-indol-2-yl)-4-methoxy-3-methylbenzo[b]thiophen-6-yl)methanone]
413 nM	COc1cc(C(=O)N2CC3CCC2[C@@H]3N)cc2sc(-c3cc4ccc(-c5ccc(C(N)=O)c(Cl)c5)cc4n3CC3CC3)c(C)c12 (stereo partly drawn) [Example 125, 4-(2-(6-((7R)-7-Amino-2-azabicyclo[2.2.1]heptane-2-carbonyl)-4-methoxy-3-methylbenzo[b]thiophen-2-yl)-1-(cyclopropylmethyl)-1H-indol-6-yl)-2-chlorobenzamide]
122 nM	COc1cc(C(=O)N2CC3CCC2[C@@H]3N)cc2sc(-c3cc4ccc(-c5ccc6c(c5)CNC6=O)cc4n3CC3CC3)c(C)c12 (stereo partly drawn) [Example 126, 5-(2-(6-((7R)-7-Amino-2-azabicyclo[2.2.1]heptane-2-carbonyl)-4-methoxy-3-methylbenzo[b]thiophen-2-yl)-1-(cyclopropylmethyl)-1H-indol-6-yl)isoindolin-1-one]
98 nM	COc1cc(C(=O)N2CC3CCC2[C@@H]3N)cc2sc(-c3cc4ccc(C)cc4n3CC3CC3)c(C)c12 (stereo partly drawn) [Example 127, ((7R)-7-Amino-2-azabicyclo[2.2.1]heptan-2-yl)(2-(1-(cyclopropylmethyl)-6-methyl-1H-indol-2-yl)-4-methoxy-3-methylbenzo[b]thiophen-6-yl)methanone]
4340 nM	COc1cc(C(=O)N2CC3CCC2[C@@H]3N)cc2sc(-c3cc4ccc(-c5cccc(F)c5C)cc4n3CC3CC3)c(C)c12 (stereo partly drawn) [Example 128, ((7R)-7-Amino-2-azabicyclo[2.2.1]heptan-2-yl)(2-(1-(cyclopropylmethyl)-6-(3-fluoro-2-methylphenyl)-1H-indol-2-yl)-4-methoxy-3-methylbenzo[b]thiophen-6-yl)methanone]
376 nM	COc1cc(-c2ccc3cc(-c4sc5cc(C(=O)N6CC7CCC6[C@@H]7N)cc(OC)c5c4C)n(CC4CC4)c3c2)ccn1 (stereo partly drawn) [Example 129, ((7R)-7-Amino-2-azabicyclo[2.2.1]heptan-2-yl)(2-(1-(cyclopropylmethyl)-6-(2-methoxypyridin-4-yl)-1H-indol-2-yl)-4-methoxy-3-methylbenzo[b]thiophen-6-yl)methanone]
38 nM	COc1cc(C(=O)N2CC3CCC2[C@@H]3N)cc2sc(-c3cc4ccc(N5CCC(N)CC5)cc4n3CC3CC3)c(C)c12 (stereo partly drawn) [Example 130, ((7R)-7-Amino-2-azabicyclo[2.2.1]heptan-2-yl)(2-(6-(4-aminopiperidin-1-yl)-1-(cyclopropylmethyl)-1H-indol-2-yl)-4-methoxy-3-methylbenzo[b]thiophen-6-yl)methanone]
146 nM	COc1cc(C(=O)N2CC3CCC2[C@@H]3N)cc2sc(-c3cc4ccc(N5CCC(OC)CC5)cc4n3CC3CC3)c(C)c12 (stereo partly drawn) [Example 131, ((7R)-7-Amino-2-azabicyclo[2.2.1]heptan-2-yl)(2-(1-(cyclopropylmethyl)-6-(4-methoxypiperidin-1-yl)-1H-indol-2-yl)-4-methoxy-3-methylbenzo[b]thiophen-6-yl)methanone]
476 nM	COc1cc(C(=O)N2CC3CCC2[C@@H]3N)cc2sc(-c3cc4ccc(-c5ccc6c(c5)CNC6=O)nc4n3CC3CC3)c(C)c12 (stereo partly drawn) [Example 132, 5-(2-(6-((7R)-7-Amino-2-azabicyclo[2.2.1]heptane-2-carbonyl)-4-methoxy-3-methylbenzo-[b]thiophen-2-yl)-1-(cyclopropylmethyl)-1H-pyrrolo[2,3-b]pyridin-6-yl)isoindolin-1-one]
